Source: patent US20250346597A1, “CONDENSED HETEROCYCLIC COMPOUNDS AS INHIBITOR OF DIACYLGLYCEROL KINASES” (BEONE MEDICINES I GMBH, priority 2023, published 2025)
pIC50: −log10 of the molar value.

Legend:
DGKζ = DGKζ (Homo sapiens (Human), UniProt Q13574); experiment: Biochemical DGK IC50 assay (ADP-Glo, lipid micelle substrate), DGKζ; details: full length DGKζ 0.5 nM, ATP 140 μM, DAG 80 μM
Procedure, shortened: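 ADP-Glo luminescence measured ADP made in a 1 h room-temperature reaction. The enzyme was Sf9-expressed, purified full-length human DGKζ, and the substrate was DAG/PS micelles. Assay buffer held 50 mM HEPES, 10 mM MgCl2, 0.01 mM CaCl2, 0.1 mM Na3VO4 and 0.01% BSA. IC50 was derived from activity inhibition over a compound concentration series.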

DGKα = DGKα (Homo sapiens (Human), UniProt P23743); experiment: Biochemical DGK IC50 assay (ADP-Glo, lipid micelle substrate), DGKα; details: full length DGKα […], ATP 140 μM, DAG 80 μM; also: full length DGKα 7.5 nM
Chain of DGKα (P23743 whole entry): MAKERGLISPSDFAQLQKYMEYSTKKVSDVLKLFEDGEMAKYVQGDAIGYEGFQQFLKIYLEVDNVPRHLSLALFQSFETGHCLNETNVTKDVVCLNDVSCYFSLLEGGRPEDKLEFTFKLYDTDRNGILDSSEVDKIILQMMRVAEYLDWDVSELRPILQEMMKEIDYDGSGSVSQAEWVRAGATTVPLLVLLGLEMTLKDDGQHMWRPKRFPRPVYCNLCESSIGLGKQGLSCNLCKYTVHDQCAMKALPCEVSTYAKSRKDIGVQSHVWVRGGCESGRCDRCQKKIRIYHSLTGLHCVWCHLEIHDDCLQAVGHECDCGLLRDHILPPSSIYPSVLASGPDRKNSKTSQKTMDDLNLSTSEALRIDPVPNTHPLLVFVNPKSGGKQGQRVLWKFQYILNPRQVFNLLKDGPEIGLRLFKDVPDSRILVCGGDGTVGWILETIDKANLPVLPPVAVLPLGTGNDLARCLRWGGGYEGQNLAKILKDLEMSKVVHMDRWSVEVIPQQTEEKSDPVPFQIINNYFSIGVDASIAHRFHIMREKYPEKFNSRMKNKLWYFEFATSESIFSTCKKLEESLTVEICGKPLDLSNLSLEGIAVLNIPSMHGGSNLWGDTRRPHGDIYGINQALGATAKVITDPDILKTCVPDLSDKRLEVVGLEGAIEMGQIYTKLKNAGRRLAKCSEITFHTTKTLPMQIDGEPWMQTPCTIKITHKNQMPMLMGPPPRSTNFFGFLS
Procedure, shortened: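 Luminescent ADP-Glo detection followed a 1 h room-temperature reaction of full-length DGKα on DAG/PS micelles, in HEPES buffer with 10 mM MgCl2, 0.01 mM CaCl2, 0.1 mM Na3VO4, BSA and Tween-20. IC50 derived from inhibition across increasing compound concentrations.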

Chain of DGKζ (Q13574 other isoform, or with tags, fused parts or gaps): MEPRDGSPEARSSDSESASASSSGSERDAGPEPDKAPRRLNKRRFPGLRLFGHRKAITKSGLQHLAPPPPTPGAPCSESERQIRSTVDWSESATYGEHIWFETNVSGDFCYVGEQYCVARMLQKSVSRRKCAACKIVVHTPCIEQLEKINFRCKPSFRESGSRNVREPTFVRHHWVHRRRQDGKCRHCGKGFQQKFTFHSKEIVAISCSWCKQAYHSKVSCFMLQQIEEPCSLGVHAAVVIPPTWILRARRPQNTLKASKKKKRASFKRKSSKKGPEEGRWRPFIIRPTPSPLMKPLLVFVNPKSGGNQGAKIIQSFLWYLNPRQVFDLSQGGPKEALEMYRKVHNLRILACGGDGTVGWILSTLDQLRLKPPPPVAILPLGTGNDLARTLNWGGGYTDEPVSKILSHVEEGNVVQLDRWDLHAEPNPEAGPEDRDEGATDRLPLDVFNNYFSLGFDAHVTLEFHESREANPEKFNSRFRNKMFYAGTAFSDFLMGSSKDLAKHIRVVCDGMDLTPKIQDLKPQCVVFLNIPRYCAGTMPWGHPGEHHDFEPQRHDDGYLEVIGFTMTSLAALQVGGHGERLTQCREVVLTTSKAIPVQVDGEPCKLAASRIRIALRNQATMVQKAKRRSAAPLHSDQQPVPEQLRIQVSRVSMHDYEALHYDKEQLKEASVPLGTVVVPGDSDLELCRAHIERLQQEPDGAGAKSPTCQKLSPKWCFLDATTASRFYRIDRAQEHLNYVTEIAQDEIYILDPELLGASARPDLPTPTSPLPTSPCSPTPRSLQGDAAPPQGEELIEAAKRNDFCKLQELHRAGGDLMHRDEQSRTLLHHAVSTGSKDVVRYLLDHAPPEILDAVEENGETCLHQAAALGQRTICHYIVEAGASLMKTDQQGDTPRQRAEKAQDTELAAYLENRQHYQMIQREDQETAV

pIC50 (DGKζ) | pIC50 (DGKα) | SMILES
< 5.00 | 6.30 | CC[C@H]1CN(C(C)c2ccn3nccc3n2)[C@H](CC)CN1c1cc(=O)n(C)c2cn(CC#N)nc12 (single isomer, unassigned) [Compound A154a]
6.77 | 6.69 | CC[C@H]1CN(C(C)c2ccc(COC3COC3)cc2)[C@H](CC)CN1c1cc(=O)n(C)c2cn(CC#N)nc12 (stereo partly drawn) [Compound A16, 2-(7-((2S,5R)-2,5-diethyl-4-(1-(4-((oxetan-3-yloxy)methyl)phenyl)ethyl)piperazin-1-yl)-4-methyl-5-oxo-4,5-dihydro-2H-pyrazolo[4,3-b]pyridin-2-yl)acetonitrile]
7.64 | 6.66 | CC[C@H]1CN(C(C)c2ccc3ncc(Cl)n3n2)[C@H](CC)CN1c1cc(=O)n(C)c2cn(CC#N)nc12 (single isomer, unassigned) [Compound A167b]
7.19 | 7.28 | CC[C@H]1CN(C(C)c2ccc3ncsc3c2)[C@H](CC)CN1c1c(C#N)c(=O)n(C)c2cn(CC#N)nc12 (stereo partly drawn) [Compound A95, 7-((2S,5R)-4-(1-(benzo[d]thiazol-6-yl)ethyl)-2,5-diethylpiperazin-1-yl)-2-(cyanomethyl)-4-methyl-5-oxo-4,5-dihydro-2H-pyrazolo[4,3-b]pyridine-6-carbonitrile]
7.26 | 5.90 | CC#CCn1cc2c(n1)c(N1C[C@@H](CC)N(C(C)c3nc4ccccc4nc3C)C[C@@H]1C)cc(=O)n2C (single isomer, unassigned) [Compound A111b]
6.58 | 5.99 | CC[C@@H]1CN(c2cc(=O)n(C)c3cn(CC#N)nc23)[C@@H](C)CN1C(C)c1ccc2ncsc2c1 (single isomer, unassigned) [Compound A92b]
< 5.00 | < 3.82 | CC[C@H]1CN(C(C)c2ccc(OC3COC3)c(C)c2)[C@H](CC)CN1c1cc(=O)n(C)c2cn(CC#N)nc12 (single isomer, unassigned) [Compound A21b]
6.86 | 7.59 | CC[C@H]1CN(C(C)c2ccc(OC(C)C)cn2)[C@H](CC)CN1c1cc(=O)n(C)c2cn(CC#N)nc12 (single isomer, unassigned) [Compound A5la]
7.01 | 6.60 | CC[C@H]1CN(C(C)c2ccc(COCCOC)cc2)[C@H](CC)CN1c1cc(=O)n(C)c2cn(CC#N)nc12 (stereo partly drawn) [Compound A18, 2-(7-((2S,5R)-2,5-diethyl-4-(1-(4-((2-methoxyethoxy)methyl)phenyl)ethyl)piperazin-1-yl)-4-methyl-5-oxo-4,5-dihydro-2H-pyrazolo[4,3-b]pyridin-2-yl)acetonitrile]
5.91 | 4.75 | CC[C@H]1CN(C(C)c2cc(F)c3ncsc3c2)[C@H](CC)CN1c1cc(=O)n(C)c2cn(CC#N)nc12 (single isomer, unassigned) [Compound A101b]
7.25 | 7.42 | CC[C@H]1CN(C(C)c2ccn3nccc3c2)[C@H](CC)CN1c1nc(=O)n(C)c2cn(CC#N)nc12 (single isomer, unassigned) [Compound A159a]
6.37 | 7.15 | CC[C@H]1CN(C(C)c2ccn3nccc3n2)[C@H](CC)CN1c1nc(=O)n(C)c2cn(CC#N)nc12 (single isomer, unassigned) [Compound A163b]
5.72 | 5.72 | CC[C@H]1CN(C(C)c2ccc(C)c(C)n2)[C@H](CC)CN1c1cc(=O)n(C)c2cn(CC#N)nc12 (single isomer, unassigned) [Compound A54b]
7.16 | 7.27 | CC[C@H]1CN(C(C)c2ccc3ncc(F)n3n2)[C@H](CC)CN1c1cc(=O)n(C)c2cn(CC#N)nc12 (single isomer, unassigned) [Compound A168b]
8.12 | 6.81 | CC[C@H]1CN(C(C)c2ccn3ncc(C)c3n2)[C@H](CC)CN1c1cc(=O)n(C)c2cn(CC#N)nc12 (single isomer, unassigned) [Compound A151b]
6.64 | 7.03 | CC[C@@H]1CN(c2cc(=O)n(C)c3cn(CC#N)nc23)[C@@H](C)CN1C(C)c1ccn2nccc2n1 (single isomer, unassigned) [Compound A166a]
6.98 | 6.69 | CC[C@H]1CN(C(C)c2ccc3nc(OC4CC4)sc3n2)[C@H](CC)CN1c1cc(=O)n(C)c2cn(CC#N)nc12 (single isomer, unassigned) [Compound A146b]
6.78 | 6.74 | CC[C@H]1CN(C(C)c2ccn3nc(C)cc3n2)[C@H](CC)CN1c1nc(=O)n(C)c2cn(CC#N)nc12 (single isomer, unassigned) [Compound A157b]

pIC50 (DGKζ) | pIC50 (DGKα) | SMILES
6.24 | 6.14 | CC[C@H]1CN(C(C)c2ccc(CN3CCS(=O)(=O)CC3)cc2)[C@H](CC)CN1c1cc(=O)n(C)c2cn(CC#N)nc12 (stereo partly drawn) [Compound A192, 2-(7-((2S,5R)-4-(1-(4-((1,1-dioxidothiomorpholino)methyl)phenyl)ethyl)-2,5-diethylpiperazin-1-yl)-4-methyl-5-oxo-4,5-dihydro-2H-pyrazolo[4,3-b]pyridin-2-yl)acetonitrile]
7.02 | 5.65 | CC[C@H]1CN(C(C)c2ccc3c(c2)CCC3(C)C)[C@H](CC)CN1c1cc(=O)n(C)c2cn(CC#N)nc12 (stereo partly drawn) [Compound A66, 2-(7-((2S,5R)-4-(1-(1,1-dimethyl-2,3-dihydro-1H-inden-5-yl)ethyl)-2,5-diethylpiperazin-1-yl)-4-methyl-5-oxo-4,5-dihydro-2H-pyrazolo[4,3-b]pyridin-2-yl)acetonitrile]
< 5.00 | 4.61 | CC[C@H]1CN(C(C)c2ccc(CN3CCCC3)cc2)[C@H](CC)CN1c1cc(=O)n(C)c2cn(CC#N)nc12 (single isomer, unassigned) [Compound A26b]
< 5.00 | 5.70 | CC[C@H]1CN(C(C)c2ccc(N)nc2)[C@H](CC)CN1c1cc(=O)n(C)c2cn(CC#N)nc12 (single isomer, unassigned) [Compound A187a]
6.07 | 6.71 | CC#CCn1cc2c(n1)c(N1C[C@@H](CC)N(C(C)c3ccc4scnc4c3)C[C@@H]1C)cc(=O)n2C (stereo partly drawn) [Compound A119, 7-((2S,5R)-4-(1-(benzo[d]thiazol-5-yl)ethyl)-5-ethyl-2-methylpiperazin-1-yl)-2-(but-2-yn-1-yl)-4-methyl-2,4-dihydro-5H-pyrazolo[4,3-b]pyridin-5-one]
7.41 | 6.36 | CC[C@H]1CN(C(C)c2ccc3nc(C)sc3c2)[C@H](CC)CN1c1nc(=O)n(C)c2cn(CC#N)nc12 (stereo partly shown) [Compound A124]
8.07 | 7.62 | CC[C@H]1CN(C(C)c2ccc3ncsc3n2)[C@H](CC)CN1c1cc(=O)n(C)c2cn(CC#N)nc12 (single isomer, unassigned) [Compound A99b]
6.40 | 6.04 | CC[C@H]1CN(C(C)c2ccc(C(C)(C)F)nc2)[C@H](CC)CN1c1cc(=O)n(C)c2cn(CC#N)nc12 (single isomer, unassigned) [Compound A46b]
6.19 | 4.42 | CC[C@H]1CN(C(C)c2ncc(OC)cc2C)[C@H](CC)CN1c1cc(=O)n(C)c2cn(CC#N)nc12 (stereo partly drawn) [Compound A60, 2-(7-((2S,5R)-2,5-diethyl-4-(1-(5-methoxy-3-methylpyridin-2-yl)ethyl)piperazin-1-yl)-4-methyl-5-oxo-4,5-dihydro-2H-pyrazolo[4,3-b]pyridin-2-yl)acetonitrile]
7.11 | 6.77 | CC[C@@H]1CN(c2cc(=O)n(C)c3cn(CC#N)nc23)[C@@H](C)CN1[C@@H](C)c1ccc2ncoc2c1 (single isomer, unassigned) [Compound A85a]
5.39 | 5.22 | CC[C@H]1CN(C(C)c2ccn3nc(C)c(F)c3n2)[C@H](CC)CN1c1cc(=O)n(C)c2cn(CC#N)nc12 (single isomer, unassigned) [Compound A160a]
6.99 | 7.60 | CC#CCn1cc2c(n1)c(N1C[C@@H](CC)N(C(C)c3cnc4ccccc4n3)C[C@@H]1CC)cc(=O)n2C (single isomer, unassigned) [Compound A206b]
< 5.00 | 5.14 | CC[C@H]1CN(C(C)c2ccn3ncc(F)c3n2)[C@H](CC)CN1c1nc(=O)n(C)c2cn(CC#N)nc12 (single isomer, unassigned) [Compound A164a]
5.03 | < 5.00 | CC[C@H]1CN(C(C)c2ccn3nc(C)c(F)c3c2)[C@H](CC)CN1c1cc(=O)n(C)c2cn(CC#N)nc12 (single isomer, unassigned) [Compound A169b]
5.39 | 5.84 | CC[C@H]1CN(C(C)c2ccc(CN3CCCC3)cc2)[C@H](CC)CN1c1cc(=O)n(C)c2cn(CC#N)nc12 (single isomer, unassigned) [Compound A26a]
6.55 | 7.27 | CC[C@H]1CN(C(C)c2ccc(CN3CCC(F)(F)CC3)cn2)[C@H](CC)CN1c1cc(=O)n(C)c2cn(CC#N)nc12 (stereo partly drawn) [Compound A182, 2-(7-((2S,5R)-4-(1-(5-((4,4-difluoropiperidin-1-yl)methyl)pyridin-2-yl)ethyl)-2,5-diethylpiperazin-1-yl)-4-methyl-5-oxo-4,5-dihydro-2H-pyrazolo[4,3-b]pyridin-2-yl)acetonitrile]
7.29 | 4.84 | CC[C@H]1CN(C(C)c2ncc(C3CC3)cc2C)[C@H](CC)CN1c1cc(=O)n(C)c2cn(CC#N)nc12 (stereo partly drawn) [Compound A57, 2-(7-((2S,5R)-4-(1-(5-cyclopropyl-3-methylpyridin-2-yl)ethyl)-2,5-diethylpiperazin-1-yl)-4-methyl-5-oxo-4,5-dihydro-2H-pyrazolo[4,3-b]pyridin-2-yl)acetonitrile]
